For one compound, inhibition results are on record in article PMC6704710, “Preclinical evaluation of 3D185, a novel potent inhibitor of FGFR1/2/3 and CSF-1R, in FGFR-dependent and macrophage-dominant cancer models” (Journal of Experimental & Clinical Cancer Research : CR, 2019).

The inhibition is the drop in the measured response relative to a control, in per cent.

Common to all, as to assay: Eurofins kinase panel
Holding throughout (format): biochemical
What all share (conditions): read-out: Inhibition rate (%)

One test deals with T1, MAK(h) (Homo sapiens, UniProt P20794).
T1 construct: purchased Eurofins (KinaseProfiler)
T1 sequence (P20794 1-623): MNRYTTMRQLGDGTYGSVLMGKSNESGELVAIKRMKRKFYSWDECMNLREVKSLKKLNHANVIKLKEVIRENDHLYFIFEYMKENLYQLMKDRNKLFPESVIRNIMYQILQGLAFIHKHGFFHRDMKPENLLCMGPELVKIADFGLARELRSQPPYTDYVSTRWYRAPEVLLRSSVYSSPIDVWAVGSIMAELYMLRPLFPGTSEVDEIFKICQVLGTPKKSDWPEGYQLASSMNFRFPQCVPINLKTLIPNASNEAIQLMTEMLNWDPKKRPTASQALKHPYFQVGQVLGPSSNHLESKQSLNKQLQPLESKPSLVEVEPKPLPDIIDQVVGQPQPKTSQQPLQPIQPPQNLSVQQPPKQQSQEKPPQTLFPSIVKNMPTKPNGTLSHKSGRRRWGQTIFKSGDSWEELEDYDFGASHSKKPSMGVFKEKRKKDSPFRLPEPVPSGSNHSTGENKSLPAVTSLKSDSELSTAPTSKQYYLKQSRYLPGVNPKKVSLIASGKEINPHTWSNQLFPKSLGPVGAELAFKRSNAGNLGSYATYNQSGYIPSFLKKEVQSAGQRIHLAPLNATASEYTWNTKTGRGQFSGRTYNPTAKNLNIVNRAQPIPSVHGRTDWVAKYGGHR

The target in another test is T2, MRCKβ(h) (Homo sapiens, UniProt Q9Y5S2).
T2 construct: purchased Eurofins (KinaseProfiler)

Another test has as its target T3, cKit(D816H)(h) (Homo sapiens, UniProt P10721, D816H).
T3 construct: purchased Eurofins (KinaseProfiler)

For another test, the target named is T4, ZAP-70(h) (Homo sapiens, UniProt P43403).
T4 construct: purchased Eurofins (KinaseProfiler)
T4 sequence (P43403 1-619): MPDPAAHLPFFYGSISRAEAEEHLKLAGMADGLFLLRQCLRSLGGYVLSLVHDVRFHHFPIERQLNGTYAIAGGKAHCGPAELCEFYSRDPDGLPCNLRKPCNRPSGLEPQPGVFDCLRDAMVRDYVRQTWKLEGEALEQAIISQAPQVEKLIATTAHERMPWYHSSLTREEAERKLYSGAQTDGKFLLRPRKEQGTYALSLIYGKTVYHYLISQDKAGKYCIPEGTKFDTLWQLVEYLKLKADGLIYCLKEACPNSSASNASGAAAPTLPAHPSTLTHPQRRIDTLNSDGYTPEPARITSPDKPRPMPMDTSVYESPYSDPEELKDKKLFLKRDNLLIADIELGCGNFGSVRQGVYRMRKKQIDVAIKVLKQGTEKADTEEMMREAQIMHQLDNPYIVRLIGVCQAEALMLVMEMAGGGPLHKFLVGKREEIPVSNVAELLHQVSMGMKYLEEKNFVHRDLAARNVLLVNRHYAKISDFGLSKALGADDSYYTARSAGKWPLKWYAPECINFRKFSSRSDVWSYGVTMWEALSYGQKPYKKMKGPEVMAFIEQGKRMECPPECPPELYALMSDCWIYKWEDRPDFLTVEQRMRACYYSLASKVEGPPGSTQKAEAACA

The target in the next test is T5, EphB4(h) (Homo sapiens, UniProt P54760).
T5 construct: purchased Eurofins (KinaseProfiler)
T5 sequence (P54760 16-987): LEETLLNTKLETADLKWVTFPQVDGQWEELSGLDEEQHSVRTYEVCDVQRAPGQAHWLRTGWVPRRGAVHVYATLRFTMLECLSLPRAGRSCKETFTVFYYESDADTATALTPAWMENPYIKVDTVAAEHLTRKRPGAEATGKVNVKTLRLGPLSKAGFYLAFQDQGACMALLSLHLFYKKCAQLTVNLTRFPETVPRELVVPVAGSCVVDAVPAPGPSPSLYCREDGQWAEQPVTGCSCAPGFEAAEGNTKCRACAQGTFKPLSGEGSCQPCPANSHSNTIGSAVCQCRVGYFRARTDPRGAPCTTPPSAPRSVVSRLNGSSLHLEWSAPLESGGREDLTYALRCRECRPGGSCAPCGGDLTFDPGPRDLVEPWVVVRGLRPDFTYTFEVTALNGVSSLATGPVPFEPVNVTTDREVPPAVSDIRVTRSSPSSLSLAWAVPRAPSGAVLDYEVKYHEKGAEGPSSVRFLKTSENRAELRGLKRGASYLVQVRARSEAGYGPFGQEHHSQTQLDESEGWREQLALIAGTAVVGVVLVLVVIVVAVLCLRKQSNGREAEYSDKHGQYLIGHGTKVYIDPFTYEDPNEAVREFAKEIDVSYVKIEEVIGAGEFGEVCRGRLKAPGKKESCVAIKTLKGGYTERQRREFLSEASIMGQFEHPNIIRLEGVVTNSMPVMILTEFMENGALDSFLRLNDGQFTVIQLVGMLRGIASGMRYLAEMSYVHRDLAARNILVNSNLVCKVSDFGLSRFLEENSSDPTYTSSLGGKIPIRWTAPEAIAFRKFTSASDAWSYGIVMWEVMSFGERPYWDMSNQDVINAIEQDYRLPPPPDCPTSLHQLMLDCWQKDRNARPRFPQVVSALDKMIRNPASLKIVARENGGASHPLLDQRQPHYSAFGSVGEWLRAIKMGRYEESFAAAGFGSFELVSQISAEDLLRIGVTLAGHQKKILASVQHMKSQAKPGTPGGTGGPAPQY

For another test, the target named is T6, MLK1(h) (Homo sapiens, UniProt P80192).
T6 construct: purchased Eurofins (KinaseProfiler)

The next test addresses T7, HIPK2(h) (Homo sapiens, UniProt Q9H2X6).
T7 construct: purchased Eurofins (KinaseProfiler)

Molecules are shown by their SMILES.

T3 sequence (P10721 26-976 D816H): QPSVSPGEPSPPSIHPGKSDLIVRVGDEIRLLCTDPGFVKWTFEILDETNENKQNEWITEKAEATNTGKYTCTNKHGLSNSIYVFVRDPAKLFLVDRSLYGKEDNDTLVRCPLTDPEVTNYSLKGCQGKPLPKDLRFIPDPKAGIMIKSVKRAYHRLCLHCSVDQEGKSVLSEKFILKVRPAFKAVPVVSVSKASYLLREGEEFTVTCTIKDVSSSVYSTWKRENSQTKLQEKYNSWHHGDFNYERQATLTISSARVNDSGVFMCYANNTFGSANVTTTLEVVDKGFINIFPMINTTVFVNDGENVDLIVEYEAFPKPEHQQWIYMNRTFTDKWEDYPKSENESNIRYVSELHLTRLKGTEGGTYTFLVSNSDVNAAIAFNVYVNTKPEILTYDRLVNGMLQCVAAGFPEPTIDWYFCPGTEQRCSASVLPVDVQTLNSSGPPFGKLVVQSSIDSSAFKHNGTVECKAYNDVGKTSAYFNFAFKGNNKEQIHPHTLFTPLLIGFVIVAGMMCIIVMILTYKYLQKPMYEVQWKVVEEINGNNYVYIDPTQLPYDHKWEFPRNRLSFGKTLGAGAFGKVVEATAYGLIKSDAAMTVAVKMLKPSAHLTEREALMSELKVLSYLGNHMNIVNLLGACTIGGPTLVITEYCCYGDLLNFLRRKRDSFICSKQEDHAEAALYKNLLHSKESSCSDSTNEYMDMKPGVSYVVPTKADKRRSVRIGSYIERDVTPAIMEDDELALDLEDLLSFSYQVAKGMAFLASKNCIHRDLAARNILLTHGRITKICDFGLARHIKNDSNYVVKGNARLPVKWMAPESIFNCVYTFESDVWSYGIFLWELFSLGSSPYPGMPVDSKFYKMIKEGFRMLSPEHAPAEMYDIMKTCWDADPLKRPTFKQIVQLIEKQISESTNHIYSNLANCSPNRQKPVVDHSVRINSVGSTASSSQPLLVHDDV
T7 sequence (Q9H2X6 whole entry): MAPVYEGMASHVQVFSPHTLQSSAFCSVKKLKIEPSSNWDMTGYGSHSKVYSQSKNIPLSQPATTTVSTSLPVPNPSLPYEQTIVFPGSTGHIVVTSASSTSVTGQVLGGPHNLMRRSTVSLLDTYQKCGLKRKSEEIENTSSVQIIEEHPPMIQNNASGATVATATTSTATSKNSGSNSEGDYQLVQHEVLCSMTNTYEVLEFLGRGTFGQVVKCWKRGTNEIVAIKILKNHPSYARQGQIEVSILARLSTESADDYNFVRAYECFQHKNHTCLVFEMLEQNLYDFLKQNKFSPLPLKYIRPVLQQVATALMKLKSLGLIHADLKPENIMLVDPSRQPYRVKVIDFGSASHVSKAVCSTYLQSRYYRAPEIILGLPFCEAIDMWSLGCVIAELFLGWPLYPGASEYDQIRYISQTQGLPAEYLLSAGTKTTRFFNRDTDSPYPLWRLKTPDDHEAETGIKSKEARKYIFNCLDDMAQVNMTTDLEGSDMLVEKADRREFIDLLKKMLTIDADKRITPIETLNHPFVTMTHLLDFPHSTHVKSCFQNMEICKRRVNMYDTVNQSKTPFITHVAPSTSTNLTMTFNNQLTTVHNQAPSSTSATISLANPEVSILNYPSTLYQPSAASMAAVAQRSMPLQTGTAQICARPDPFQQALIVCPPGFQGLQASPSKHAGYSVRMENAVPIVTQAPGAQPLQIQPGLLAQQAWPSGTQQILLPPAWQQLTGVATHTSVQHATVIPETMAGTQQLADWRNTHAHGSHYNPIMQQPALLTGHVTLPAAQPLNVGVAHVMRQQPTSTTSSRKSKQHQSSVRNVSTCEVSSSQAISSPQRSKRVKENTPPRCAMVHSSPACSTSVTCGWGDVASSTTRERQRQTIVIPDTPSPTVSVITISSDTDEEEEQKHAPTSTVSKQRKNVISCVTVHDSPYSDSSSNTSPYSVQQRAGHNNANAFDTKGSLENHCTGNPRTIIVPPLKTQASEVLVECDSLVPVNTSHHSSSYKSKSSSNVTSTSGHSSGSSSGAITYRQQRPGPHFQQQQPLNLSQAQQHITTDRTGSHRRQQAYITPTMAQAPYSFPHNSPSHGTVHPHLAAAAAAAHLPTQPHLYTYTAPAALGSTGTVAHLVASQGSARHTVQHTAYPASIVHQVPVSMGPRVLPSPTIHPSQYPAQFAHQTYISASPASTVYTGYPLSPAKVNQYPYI
T6 sequence (P80192 whole entry): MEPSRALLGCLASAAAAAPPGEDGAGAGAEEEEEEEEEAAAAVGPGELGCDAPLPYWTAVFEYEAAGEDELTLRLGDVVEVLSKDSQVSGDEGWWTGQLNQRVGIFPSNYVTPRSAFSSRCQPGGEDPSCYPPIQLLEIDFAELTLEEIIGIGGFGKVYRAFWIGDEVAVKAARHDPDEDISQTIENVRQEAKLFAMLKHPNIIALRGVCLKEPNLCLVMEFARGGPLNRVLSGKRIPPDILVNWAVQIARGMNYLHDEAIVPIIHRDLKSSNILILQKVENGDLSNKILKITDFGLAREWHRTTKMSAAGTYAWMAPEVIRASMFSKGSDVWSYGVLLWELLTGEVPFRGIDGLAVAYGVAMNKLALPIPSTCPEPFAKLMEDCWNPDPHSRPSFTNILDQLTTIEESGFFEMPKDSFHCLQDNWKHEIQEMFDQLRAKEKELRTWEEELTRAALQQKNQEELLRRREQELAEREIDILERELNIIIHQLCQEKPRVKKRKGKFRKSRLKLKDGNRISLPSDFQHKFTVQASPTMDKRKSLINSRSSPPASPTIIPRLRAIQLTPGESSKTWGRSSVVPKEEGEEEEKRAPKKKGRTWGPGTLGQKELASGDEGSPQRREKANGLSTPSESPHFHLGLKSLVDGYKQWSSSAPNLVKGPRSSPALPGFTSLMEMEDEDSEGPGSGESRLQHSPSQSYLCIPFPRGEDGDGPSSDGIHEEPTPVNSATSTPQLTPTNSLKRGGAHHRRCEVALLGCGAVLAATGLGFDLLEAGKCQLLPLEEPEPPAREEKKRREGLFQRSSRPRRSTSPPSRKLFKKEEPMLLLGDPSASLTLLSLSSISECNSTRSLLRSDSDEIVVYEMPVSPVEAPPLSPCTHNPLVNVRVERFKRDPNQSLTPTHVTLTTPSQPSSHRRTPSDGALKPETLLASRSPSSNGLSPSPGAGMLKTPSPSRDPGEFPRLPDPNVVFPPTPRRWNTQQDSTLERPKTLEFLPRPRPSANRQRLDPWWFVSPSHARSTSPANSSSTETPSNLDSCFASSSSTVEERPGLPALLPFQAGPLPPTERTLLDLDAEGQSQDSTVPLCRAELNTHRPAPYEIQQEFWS
T2 sequence (Q9Y5S2 whole entry): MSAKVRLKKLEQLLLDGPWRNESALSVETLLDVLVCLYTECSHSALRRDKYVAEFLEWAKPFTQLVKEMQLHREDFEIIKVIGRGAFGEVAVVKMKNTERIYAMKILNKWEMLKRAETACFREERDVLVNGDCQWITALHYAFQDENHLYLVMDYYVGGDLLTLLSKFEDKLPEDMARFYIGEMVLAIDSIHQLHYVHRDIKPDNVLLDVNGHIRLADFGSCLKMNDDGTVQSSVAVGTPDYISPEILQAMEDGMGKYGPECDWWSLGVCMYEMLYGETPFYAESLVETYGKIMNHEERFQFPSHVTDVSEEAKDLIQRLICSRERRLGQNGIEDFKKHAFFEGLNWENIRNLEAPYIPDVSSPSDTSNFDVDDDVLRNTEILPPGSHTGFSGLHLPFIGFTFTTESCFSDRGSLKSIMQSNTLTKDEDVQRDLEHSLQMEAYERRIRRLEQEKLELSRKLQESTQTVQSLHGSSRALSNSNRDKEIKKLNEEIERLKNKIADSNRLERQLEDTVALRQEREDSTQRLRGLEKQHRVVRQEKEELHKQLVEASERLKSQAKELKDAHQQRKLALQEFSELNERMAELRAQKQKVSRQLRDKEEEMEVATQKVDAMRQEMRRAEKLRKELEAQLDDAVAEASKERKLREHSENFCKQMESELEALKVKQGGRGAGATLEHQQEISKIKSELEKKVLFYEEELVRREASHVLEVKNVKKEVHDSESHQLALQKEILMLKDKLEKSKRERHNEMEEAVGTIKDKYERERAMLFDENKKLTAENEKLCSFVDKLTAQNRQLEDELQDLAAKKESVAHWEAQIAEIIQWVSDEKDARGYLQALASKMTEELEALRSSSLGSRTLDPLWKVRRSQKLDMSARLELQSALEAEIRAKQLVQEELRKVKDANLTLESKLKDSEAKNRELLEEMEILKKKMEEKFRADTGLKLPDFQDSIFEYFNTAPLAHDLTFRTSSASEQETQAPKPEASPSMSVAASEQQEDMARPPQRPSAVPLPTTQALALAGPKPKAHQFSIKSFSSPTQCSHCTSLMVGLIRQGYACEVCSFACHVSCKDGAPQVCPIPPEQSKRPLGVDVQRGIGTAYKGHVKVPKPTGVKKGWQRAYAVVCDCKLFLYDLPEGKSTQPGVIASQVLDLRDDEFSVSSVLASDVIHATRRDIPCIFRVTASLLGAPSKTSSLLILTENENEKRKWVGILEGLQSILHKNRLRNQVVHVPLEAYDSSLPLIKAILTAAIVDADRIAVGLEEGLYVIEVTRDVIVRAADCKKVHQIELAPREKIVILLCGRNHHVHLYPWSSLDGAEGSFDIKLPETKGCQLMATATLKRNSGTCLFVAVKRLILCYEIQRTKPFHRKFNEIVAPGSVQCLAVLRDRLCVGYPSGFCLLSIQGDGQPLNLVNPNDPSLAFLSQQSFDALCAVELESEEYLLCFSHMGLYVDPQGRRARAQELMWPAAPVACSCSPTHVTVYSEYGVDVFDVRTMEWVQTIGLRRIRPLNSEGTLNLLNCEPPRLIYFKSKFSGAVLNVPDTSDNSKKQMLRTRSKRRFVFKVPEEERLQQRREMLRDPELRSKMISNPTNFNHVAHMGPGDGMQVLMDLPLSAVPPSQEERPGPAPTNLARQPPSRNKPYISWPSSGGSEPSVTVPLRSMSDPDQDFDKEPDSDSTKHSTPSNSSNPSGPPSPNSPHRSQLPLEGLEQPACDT

On to `COc1cc(OC)c(Cl)c(-c2ccc3c(NC(=O)c4ccc(N5CCNC(C)(C)C5)cc4)n[nH]c3n2)c1Cl` [3D185], for which the inhibition at 0.01 µM was -1% at MAK(h) (10 nM); 18% on MRCKβ(h) (10 nM); 22% on cKit(D816H)(h) (10 nM); 12% at ZAP-70(h) (10 nM); 8% on EphB4(h) (10 nM); -9% at MLK1(h) (10 nM). Moreover, the inhibition at 0.01 µM at HIPK2(h) (10 nM) is 3%. Besides, the inhibition at 0.1 µM at MAK(h) (100 nM) was -9%; at MRCKβ(h) (100 nM), 8%; on cKit(D816H)(h) (100 nM), 27%; at ZAP-70(h) (100 nM), 0%; on EphB4(h) (100 nM), -5%; on MLK1(h) (100 nM) it was -1%. The inhibition at 0.1 µM on HIPK2(h) (100 nM) is 6%. In addition, the inhibition at 1 µM at MAK(h) (1000 nM) is -17%; on MRCKβ(h) (1000 nM), 21%; on cKit(D816H)(h) (1000 nM) it was 44%; on ZAP-70(h) (1000 nM) it was 8%; at EphB4(h) (1000 nM) it was 2%; at MLK1(h) (1000 nM), 26%. Further, the inhibition at 1 µM at HIPK2(h) (1000 nM) was -10%.
